Data taken from ChEMBL document CHEMBL3872242, “Anti-inflammatory tetraquinane diterpenoids from a Crinipellis species” (Bioorg Med Chem, 2017).
Values belong to the compound of their own block, whether it stands above or below them. Active and inactive are the calls of the source. The calls are words filed in the database; no cut-off is given here.

How the values were obtained:
[1] = Cytotoxicity against human MONO-MAC-6 cells up to 50 uM measured after 24 hrs by XTT assay; assay type: toxicity, cell-based; settings: mono-mac-6, 24 h
MONO-MAC-6 [2] = assay: Inhibition of human THP1 cells derived IL-8 promoter dependent transcription activity expressed in LPS/INF-gamma stimulated human MONO-MAC-6 cells measured after 4 hrs by luciferase reporter gene assay; assay type: functional, cell-based; settings: MONO-MAC-6, 4 h
[3] = Effect on constitutive activity of EF-1alpha expressed in human MONO-MAC-6 cells up to 50 uM measured after 4 hrs by luciferase reporter gene assay; assay type: ADME, cell-based; settings: mono-mac-6, 4 h
[4] = Inhibition of NF-kappaB (unknown origin) expressed in LPS/INF-gamma-stimulated human MONO-MAC-6 cells measured after 4 hrs by luciferase reporter gene assay; assay type: cell-based; settings: MONO-MAC-6, 4 h
[5] = Inhibition of IRF (unknown origin) expressed in LPS/INF-gamma-stimulated human MONO-MAC-6 cells assessed as reduction in ISRE dependent transcription activity measured after 4 hrs by luciferase reporter gene assay; assay type: cell-based; settings: MONO-MAC-6, 4 h
MONO-MAC-6 [6] = assay: Inhibition of LPS/INF-gamma induced CXCL10 promoter dependent transcription activity in human MONO-MAC-6 cells measured after 4 hrs by luciferase reporter gene assay; assay type: functional
[7] = Down regulation of […] mRNA expression in LPS/INF-gamma stimulated human MONO-MAC-6 cells at 30 uM preincubated for 1 hr followed by LPS/INF-gamma stimulation measured after 4 hrs by quantitative RT-PCR analysis; assay type: functional, cell-based
[8] = Effect on GAPDH mRNA expression in human MONO-MAC-6 cells at 30 to 60 uM preincubated for 1 hr followed by LPS/INF-gamma stimulation measured after 4 hrs by quantitative RT-PCR analysis; assay type: ADME, cell-based; settings: mono-mac-6, 4 h
[9] = Down regulation of IL-8 mRNA expression in LPS/INF-gamma stimulated human MONO-MAC-6 cells at 30 uM preincubated for 1 hr followed by LPS/INF-gamma stimulation measured after 4 hrs by quantitative RT-PCR analysis; assay type: functional, cell-based
MONO-MAC-6 [10] = assay: Inhibition of IL-8 mRNA expression in LPS/INF-gamma stimulated human MONO-MAC-6 cells at 30 uM preincubated for 1 hr followed by LPS/INF-gamma stimulation measured after 16 hrs; assay type: functional, cell-based
MONO-MAC-6 [11] = assay: Inhibition of IL-23 mRNA expression in LPS/INF-gamma stimulated human MONO-MAC-6 cells at 30 uM preincubated for 1 hr followed by LPS/INF-gamma stimulation measured after 16 hrs; assay type: functional, cell-based
MONO-MAC-6 [12] = assay: Inhibition of CXCL10 mRNA expression in LPS/INF-gamma stimulated human MONO-MAC-6 cells at 30 uM preincubated for 1 hr followed by LPS/INF-gamma stimulation measured after 16 hrs; assay type: functional, cell-based
MONO-MAC-6 [13] = assay: Inhibition of CCL1 mRNA expression in LPS/INF-gamma stimulated human MONO-MAC-6 cells at 30 uM preincubated for 1 hr followed by LPS/INF-gamma stimulation measured after 16 hrs; assay type: functional, cell-based
[14] = Down regulation of COX-2 mRNA expression in LPS/INF-gamma stimulated human MONO-MAC-6 cells at 30 uM preincubated for 1 hr followed by LPS/INF-gamma stimulation measured after 4 hrs by quantitative RT-PCR analysis; assay type: functional, cell-based
[15] = Down regulation of TNF-alpha mRNA expression in LPS/INF-gamma stimulated human MONO-MAC-6 cells at 30 uM preincubated for 1 hr followed by LPS/INF-gamma stimulation measured after 4 hrs by quantitative RT-PCR analysis; assay type: functional, cell-based
MONO-MAC-6 [16] = assay: Inhibition of IL-6 mRNA expression in LPS/INF-gamma stimulated human MONO-MAC-6 cells at 30 uM preincubated for 1 hr followed by LPS/INF-gamma stimulation measured after 16 hrs; assay type: functional, cell-based
MONO-MAC-6 [17] = assay: Inhibition of CXCL11 mRNA expression in LPS/INF-gamma stimulated human MONO-MAC-6 cells at 30 uM preincubated for 1 hr followed by LPS/INF-gamma stimulation measured after 16 hrs; assay type: functional, cell-based
MONO-MAC-6 [18] = assay: Inhibition of TNF-alpha mRNA expression in LPS/INF-gamma stimulated human MONO-MAC-6 cells at 30 uM preincubated for 1 hr followed by LPS/INF-gamma stimulation measured after 16 hrs; assay type: functional, cell-based
[19] = Down regulation of IL-6 mRNA expression in LPS/INF-gamma stimulated human MONO-MAC-6 cells at 30 uM preincubated for 1 hr followed by LPS/INF-gamma stimulation measured after 4 hrs by quantitative RT-PCR analysis; assay type: functional, cell-based
MONO-MAC-6 [20] = assay: Inhibition of CCL3 mRNA expression in LPS/INF-gamma stimulated human MONO-MAC-6 cells at 30 uM preincubated for 1 hr followed by LPS/INF-gamma stimulation measured after 16 hrs; assay type: functional, cell-based
MONO-MAC-6 [21] = assay: Inhibition of CXCL1 mRNA expression in LPS/INF-gamma stimulated human MONO-MAC-6 cells at 30 uM preincubated for 1 hr followed by LPS/INF-gamma stimulation measured after 16 hrs; assay type: functional, cell-based
[22] = Down regulation of CCL2 mRNA expression in LPS/INF-gamma stimulated human MONO-MAC-6 cells at 30 uM preincubated for 1 hr followed by LPS/INF-gamma stimulation measured after 4 hrs by quantitative RT-PCR analysis; assay type: functional, cell-based

IC50 (MONO-MAC-6 [2]): > 50 µM | IC50 [4]: > 50 µM | IC50 [5]: > 50 µM
SMILES: C=C[C@H]1CC[C@]23C[C@@H]4[C@H](C)[C@@H](O)[C@H]5O[C@@]45[C@@]2(C)CC(=O)[C@]13C
Activity [1]: Non-Toxic | Activity [3]: Non-Toxic

IC50 (MONO-MAC-6 [2]): 7 to 7.5 µM | IC50 [4]: 20 to 25 µM | IC50 [5]: 40 to 45 µM
SMILES: CC(C)[C@H]1CC[C@]23C[C@@H]4[C@H](C)C(=O)[C@H]5O[C@]54[C@@]2(C)[C@@H](O)C(=O)[C@]13C
Activity [1]: Non-Toxic | inhibition (MONO-MAC-6 [6]): Dose-dependent effect | Activity [7]: Active | Activity [8]: Non-Toxic | Activity [9]: Active | inhibition (MONO-MAC-6 [10]): Active | inhibition (MONO-MAC-6 [11]): Active | inhibition (MONO-MAC-6 [12]): Active | inhibition (MONO-MAC-6 [13]): Active | Activity [14]: Active | Activity [15]: Active | inhibition (MONO-MAC-6 [16]): Active | inhibition (MONO-MAC-6 [17]): Active | inhibition (MONO-MAC-6 [18]): Active | Activity [3]: Non-Toxic | Activity [19]: Active | inhibition (MONO-MAC-6 [20]): Active | inhibition (MONO-MAC-6 [21]): Active | Activity [22]: Active
